Assay results: ChEMBL document CHEMBL1133590, “Study on selectin blocker. 8. Lead discovery of a non-sugar antagonist using a 3D-pharmacophore model” (J Med Chem, 2000)

Molecular target: T1, E-selectin (Mus musculus, UniProt Q00690)
T1 sequence (Q00690 whole entry): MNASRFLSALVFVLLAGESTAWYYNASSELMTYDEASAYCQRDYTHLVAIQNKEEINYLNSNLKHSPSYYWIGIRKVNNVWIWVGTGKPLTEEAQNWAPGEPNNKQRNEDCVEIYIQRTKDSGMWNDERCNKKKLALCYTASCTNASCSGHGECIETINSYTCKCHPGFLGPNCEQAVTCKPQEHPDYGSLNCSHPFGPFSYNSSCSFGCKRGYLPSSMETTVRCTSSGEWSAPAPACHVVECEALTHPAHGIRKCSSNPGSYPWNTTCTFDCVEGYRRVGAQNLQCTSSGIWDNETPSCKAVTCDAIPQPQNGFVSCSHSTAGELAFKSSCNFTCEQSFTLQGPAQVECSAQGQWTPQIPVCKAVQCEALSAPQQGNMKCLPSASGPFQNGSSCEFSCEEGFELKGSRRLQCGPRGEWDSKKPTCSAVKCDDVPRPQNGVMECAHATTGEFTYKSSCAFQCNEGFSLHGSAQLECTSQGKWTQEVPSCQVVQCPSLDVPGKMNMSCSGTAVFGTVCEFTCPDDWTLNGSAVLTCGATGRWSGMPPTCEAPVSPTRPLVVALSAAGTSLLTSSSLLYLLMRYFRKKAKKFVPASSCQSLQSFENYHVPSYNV
Test: Evaluated for the inhibitory activity against Selectin E

SMILES	IC50 [µM]
CCCCCCCCCCCCCCCCCC(=O)Nc1ccc(C(=O)Nc2cc(C(=O)O)ccc2Oc2cc(C(=O)O)cc(C(=O)O)c2)cc1	> 500
CCCCCCCCCCCCCCC(CCCCCCCCCCCCCC)C(=O)N[C@@H](CO[C@@H]1OC(C)[C@@H](O)[C@H](O)C1O)C(=O)N[C@H](CCC(=O)O)C(=O)NC (stereo not given in full)	13
CCCCCCCCCCCCCCCCCC(=O)Nc1ccc(C(=O)Nc2cc(C(=O)O)ccc2Oc2cccc(C(=O)O)c2)cc1	86
CCCCCCCCCCCCCCCCCC(=O)Nc1ccc(C(=O)CC(=O)Nc2cc(C(=O)O)ccc2Oc2cc(C(=O)O)cc(C(=O)O)c2)cc1	1200
CC(=O)N[C@H]1[C@H]([C@H](O)[C@H](O)CO)O[C@@](O[C@H]2[C@@H](O)[C@@H](CO)O[C@@H](O[C@@H]([C@H](O[C@@H]3O[C@@H](C)[C@@H](O)[C@@H](O)[C@@H]3O)[C@H](C=O)NC(C)=O)[C@H](O)CO)[C@@H]2O)(C(=O)O)C[C@@H]1O [SIALYL LEWIS X]	580
